Data as given in patent US20040235873A1, “Antiinflammatoric and antitussive compositions” (priority 2001, published 2004).

Assays:
Type in all cases: in vivo, Hartley male guinea pigs
[1] = test system: ovalbumin (OA)-sensitized guinea pigs; test: Cell invasion in bronchovesicular washing fluid (BALF) of ovalbumin-sensitized guinea pigs after antigen induction; settings: for Number of eosinophils invaded in BALF / Number of the total cells invaded in BALF: 24 hours after induction
Procedure: The present test was carried out according to the method mentioned below, with reference to the method of Lagente et al [Clin. Exp. Allergy, 23, 1002-1010 (1993)] and the method of Dunn et al [Am. Rev. Resp. Dis., 137, 541-547 ([…])].
Hartley male guinea pigs (from Nippon Charles River) were raised at a constant temperature (22 to 23° C.) and a constant humidity (50 to 60%) and healthy animals of those having a body weight of from 350 to 450 g were used in the test. The guinea pigs were put in a plastic box (30×50×30 cm), and made to inhale 2 mg/ml of a solution of ovalbumin (hereinafter sometimes abbreviated to OA, from Sigma Aldrich) for30minutes, twice at an interval of 48 hours for […] sensitization. An ultrasonic nebulizer (NE-U12, by Omron) was used for the inhalation. Antigen induction in the test animals was carried out 13 to 15 days after the final sensitization, in the same plastic box as that for the sensitization. For it, the test animals were made to inhale 1% (w/v) OA solution for 15 minutes to induce reaction. Those of the control group with no OA inhalation were made to inhale saline.
In this stage, a histamine H1-receptor antagonist, pyrilamine (by Sigma Aldrich) was intravenously administered (2 mg/kg) to the test animals 30 minutes before the antigen induction, for evading animal death owing to anaphylactic shock. Orotic acid, zinc orotate and a PDE4 inhibitor (rolipram, obtained through chemical synthesis) were orally administered one hour before the antigen induction. To those of the control group not administered with orotic acid, zinc orotate or rolipram, 0.5% (w/v) MC solution was administered.
24 to 72 hours after the antigen induction, the bronchovesicles of the test animals were washed (BAL). Namely, the sensitized guinea pigs were anesthetized with pentobarbital (intravenous-administration, 100 mg/kg), and 5 ml of saline was injected into the guinea pigs via a tracheal cannula through a disposable syringe (by Terumo). In about 5 seconds, the saline injected into the guinea pigs was recovered. This operation was repeated twice to collect the bronchovesicular washing fluid (BALF). BALF was centrifuged at 2500 rpm (1250 ×g) at 4° C. for 10 minutes. The supernatant was removed by suction, and the deposited cells were suspended in one ml of saline. In the suspension, the number of all leucocytes was counted with an automatic cell counter (Celltec MEK-4300, by Nippon Kodensha). A part of the cells were formed into a smear with Cytospin III (by Shand on Southern Instruments). […] Specifically, eosinophils (Eos), neutrophils (Neu), macrophages (Mac), lymphocytes (Lym) and other cells (Other) were counted, and their ratio was calculated. The number of the respective cells was calculated by multiplying the number of all leucocytes by the ratio of the cells counted in the fraction.
(§1) The data obtained were expressed as the mean value±standard error thereof. A statistical analysis soft SAS was used for significance test. For significance test of the two groups, Student's t-test was carried out; and for comparison test of multiple groups, Bartlet test was followed by 1-way ANOVA and Dunnett's multiple comparison test. […]
Orotic acid was orally administered 1 hour before the OA inhalation. The data obtained are expressed as the mean value ±standard error of 9 or 10 cases.
Zinc orotate was orally administered 1 hour before the OA inhalation. The data obtained are expressed as the mean value±standard error of 9 or 10 cases. […]

[2] = test system: LTD4-induced airway hypersensitiveness in guinea pigs; test: LTD4-induced airway hypersensitive reaction; settings: for ID50 of airway hypersensitiveness inhibition: intraduodenal administration 30 minutes before LTD4 inhalation, guinea pigs; for Airway hypersensitiveness inhibition versus control group: orotic acid 10 to 30 mg/kg, zinc orotate 10, 30 mg/kg to the duodenum
Procedure: This was to confirm the presence or absence of antiasthmatic effect of orotic acid and zinc orotate. Concretely, the effect of orotic acid and zinc orotate against leukotriene D4 (hereinafter abbreviated to LTD4)-induced airway hypersensitive reaction was investigated in the manner described below.
Expression of LTD4-induced airway hypersensitiveness was carried out according to the method of Sato et al [Clinical and Experimental Allergy, 26, 957-963 (1996)], as shown below:
(§2) Hartley male guinea pigs (from Nippon SLC) were raised at a constant temperature (22 to 23° C.) and a constant humidity (50 to 60%) for 2 weeks, and healthy animals of those having a body weight of from 150 to 250 g were used in the test. The guinea pigs were anesthetized with urethane (1.2 g/kg) and subjected to tracheotomy and cannulation. The tracheal cannula was connected to an artificial respiration device for small animals (Model 7025, UGO BASIL by VARASE), and artificial respiration (breathing rate, 60/min; 10 ml/kg) was performed. As an airway contraction index thereof, the pulmonary inflation pressure (hereinafter abbreviated to […], its unit being cmH2O) of the test animal was measured via a pressure transducer (TP-603, by Nippon Kodensha). In addition, a cannula was inserted into the carotid […] of the test animal, and the blood pressure through it was also measured via a pressure transducer (Life KitDX-360, by Nippon Kodensha). After the operation, the guinea pigs were left as such for about 5 minutes, and after the base PIP thereof was stabilized, the test with them was started. 50 μg/kg acetylcholine (hereinafter referred to as ACh, by Sigma) was intravenously administered to each test animal to induce airway contraction therein. After the elevated PIP was lowered to the base line thereof, ACh of the same concentration was again intravenously administered. This operation was repeated until the PIP increase (ΔPIP) was stabilized. After the ΔPIP stabilization was confirmed, ACh was intravenously administered
(§3) (30 μg/kg or 40 μg/kg), and the value ΔPIP in this stage was referred to as a Pre value. 30 minutes thereafter, each test animal was made to inhale 0.1 µg/ml of LTD4 (by Funakoshi) for 30 seconds via an ultrasonic nebulizer (NE-U12, by Omron), and after 15 minutes, ACh was again intravenously administered (30 μg/kgor40μg/kg) to each test animal to induce airway contraction therein. The value ΔPIP in this stage was rendered as a Post value. Relative to those of the LTD4 administration group, the animals of the control group were made to inhale saline in place of LTD4. The Post value and the Pre value were compared with each other in the control group and the LTD4 administration group, and the difference was an index of airway hypersensitiveness expression.
(§4) 30 minutes before the start of the LTD 4 inhalation, a test substance was administered to the duodenum of each test animal. In place of the test substance, 0.5% methyl cellulose (hereinafter abbreviated to MC) was administered to the animals of the control group relative to those of the test substance-administration group.
as §1, with “of” for “of the”, “paired” for “Student's”, “out (FIG. 1, FIG. 2);” for “out;”

[3] = test system: ACh-induced airway contraction in guinea pigs; test: Acetylcholine-induced pulmonary inflation pressure change before and after saline inhalation (preliminary test); settings: for PIP increase (ΔPIP) induced by intravenous ACh, Post value / PIP increase (ΔPIP) induced by intravenous ACh, Pre value / Difference between Pre value and Post value of ACh-induced PIP increase: 30 mg/kg to the duodenum prior to saline inhalation; for PIP increase (ΔPIP) induced by intravenous ACh, Post value: after saline inhalation; for PIP increase (ΔPIP) induced by intravenous ACh, Post value / PIP increase (ΔPIP) induced by intravenous ACh, Pre value: mean±standard error of three cases; for PIP increase (ΔPIP) induced by intravenous ACh, Pre value: before saline inhalation; for Difference between Pre value and Post value of ACh-induced PIP increase: paired t-test
Procedure: as §2, §3, §4
The data obtained were expressed as the mean value±standard error thereof. A statistical analysis soft SAS was used for significance test. For significance test of two groups, paired t-test was carried out (FIG. 1, FIG. 2); and for comparison test of multiple groups, Bartlet test was followed by 1-way ANOVA and Dunnett's multiple comparison test. In every test, p<0.05 indicates a significant difference.
The PIP increase (Pre value, white column) induced by the intravenous ACh administration (40 µg/kg) was 8.40±0.76 cmH2O; while the PIP increase (Post value, black column) after the inhalation of saline, as used for a solvent for LTD4 was 8.30±1.07cmH2.
Orotic acid and zinc orotate each were suspended in 0.5% MC just before use.
Orotic acid, zinc orotate (30 mg/kg) or 0.5% MC was intraduodenally administered 30 minutes before the inhalation of saline. The data obtained are expressed as the mean value±standard error of three cases. N.S. (not significant) indicates no statistically significant difference.

[4] = 100 mg/kg orally 1 hour before OA antigen induction
[5] = 100 or 300 mg/kg orally 1 hour before OA antigen induction

Molecule | Number of eosinophils invaded in BALF [1, 4] | Number of the total cells invaded in BALF [1, 4] | Statistical significance of airway hypersensitiveness inhibition ([2]; dose of 30 mg/kg to the duodenum, versus MC control, p<0.05) | ID50 of airway hypersensitiveness inhibition [2] [mg/kg] | Airway hypersensitiveness inhibition versus control group [2] | PIP increase (ΔPIP) induced by intravenous ACh, Post value [3] [cmH2O] | PIP increase (ΔPIP) induced by intravenous ACh, Pre value [3] [cmH2O] | Difference between Pre value and Post value of ACh-induced PIP increase [3] | Influence on ACh-induced airway contraction ([3]; FIG. 1, 30 mg/kg intraduodenal) | Effect against cell invasion, 24 hours compared with 48 hours after antigen induction ([1]; orally one hour before antigen induction, not illustrated) | Number of eosinophils invaded in BALF [1, 5] | Number of the total cells invaded in BALF [1, 5]
O=C(O)c1cc(=O)[nH]c(=O)[nH]1 [orotic acid, uracil-4-carboxylic acid] | decreased | decreased | showed a statistical significance | 20.1 | showed airway hypersensitiveness inhibition that depends on the increase in the dose | 7.33±1.20 | 7.50±1.04 | no significant difference | did not have any influence on airway contraction |  |  | 
COc1ccc(C2CNC(=O)C2)cc1OC1CCCC1 (centres unmarked) [rolipram, reference compound] |  |  |  |  |  |  |  |  |  | any significant difference in the cell invasion was not found between 24 hours and 48 hours |  | 
zinc orotate |  |  |  | 16.2 | showed airway hypersensitiveness inhibition that depends on the increase in the dose | 8.00±1.44 | 7.67±1.20 | no significant difference |  |  | decreased | decreased
